pIC50: −log10 of the molar value.
Tests used:
[1] = biological target: T1, RSK1 (Homo sapiens, UniProt Q15418); assay: in vitro RSK1 kinase assay, YB-1 peptide ([…] screen) and S6K peptide dose response; type: biochemical
T1 construct: gene RPS6KA1

[2] = biological target: T2, RSK2 (Homo sapiens, UniProt P51812); assay: in vitro RSK2 kinase assay, YB-1 peptide substrate; type: biochemical
T2 construct: gene RPS6KA3

[3] = biological target: T1, RSK1; assay: biochemical; parameters: In vitro RSK1 kinase assay with S6K peptide substrate, dose-response 0.001-100 uM
[4] = biological target: T2, RSK2; assay: biochemical; parameters: In vitro RSK2 kinase assay with S6K peptide substrate, dose-response 0.001-100 uM (SignalChem)
Experimental: Following the RSK1 screen, a broad dose-response study (0.001-100 μM) was conducted against RSK2 using the YB-1 peptide as a substrate in cell-free assays (Table 2). […] Kinase profiling services for RSK2 were provided by SignalChem, as previously described. […] To confirm inhibition of RSK2 activity, we also repeated the kinase assay with a secondary RSK substrate, S6K.

[5] = read-out: Inhibition of RSK2 (%) against the YB-1 peptide as the substrate / IC50

T1 sequence (Q15418 whole entry): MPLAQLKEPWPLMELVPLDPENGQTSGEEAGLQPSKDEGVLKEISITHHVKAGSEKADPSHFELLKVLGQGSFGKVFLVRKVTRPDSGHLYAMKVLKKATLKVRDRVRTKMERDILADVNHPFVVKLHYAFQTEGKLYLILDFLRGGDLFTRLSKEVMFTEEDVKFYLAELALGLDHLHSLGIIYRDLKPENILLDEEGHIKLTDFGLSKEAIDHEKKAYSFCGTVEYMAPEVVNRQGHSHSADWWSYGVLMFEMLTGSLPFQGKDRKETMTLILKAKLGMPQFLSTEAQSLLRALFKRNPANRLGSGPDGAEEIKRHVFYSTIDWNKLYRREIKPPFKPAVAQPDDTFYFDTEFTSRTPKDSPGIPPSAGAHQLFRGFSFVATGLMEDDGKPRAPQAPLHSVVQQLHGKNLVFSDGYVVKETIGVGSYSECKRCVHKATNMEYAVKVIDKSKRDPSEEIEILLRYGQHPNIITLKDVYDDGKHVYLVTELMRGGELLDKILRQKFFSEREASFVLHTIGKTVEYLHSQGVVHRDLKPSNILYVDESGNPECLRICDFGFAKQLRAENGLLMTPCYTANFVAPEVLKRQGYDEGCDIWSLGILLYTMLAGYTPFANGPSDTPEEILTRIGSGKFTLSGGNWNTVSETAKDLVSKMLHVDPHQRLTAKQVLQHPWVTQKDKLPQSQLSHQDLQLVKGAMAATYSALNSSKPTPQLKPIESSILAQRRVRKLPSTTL
T2 sequence (P51812 whole entry): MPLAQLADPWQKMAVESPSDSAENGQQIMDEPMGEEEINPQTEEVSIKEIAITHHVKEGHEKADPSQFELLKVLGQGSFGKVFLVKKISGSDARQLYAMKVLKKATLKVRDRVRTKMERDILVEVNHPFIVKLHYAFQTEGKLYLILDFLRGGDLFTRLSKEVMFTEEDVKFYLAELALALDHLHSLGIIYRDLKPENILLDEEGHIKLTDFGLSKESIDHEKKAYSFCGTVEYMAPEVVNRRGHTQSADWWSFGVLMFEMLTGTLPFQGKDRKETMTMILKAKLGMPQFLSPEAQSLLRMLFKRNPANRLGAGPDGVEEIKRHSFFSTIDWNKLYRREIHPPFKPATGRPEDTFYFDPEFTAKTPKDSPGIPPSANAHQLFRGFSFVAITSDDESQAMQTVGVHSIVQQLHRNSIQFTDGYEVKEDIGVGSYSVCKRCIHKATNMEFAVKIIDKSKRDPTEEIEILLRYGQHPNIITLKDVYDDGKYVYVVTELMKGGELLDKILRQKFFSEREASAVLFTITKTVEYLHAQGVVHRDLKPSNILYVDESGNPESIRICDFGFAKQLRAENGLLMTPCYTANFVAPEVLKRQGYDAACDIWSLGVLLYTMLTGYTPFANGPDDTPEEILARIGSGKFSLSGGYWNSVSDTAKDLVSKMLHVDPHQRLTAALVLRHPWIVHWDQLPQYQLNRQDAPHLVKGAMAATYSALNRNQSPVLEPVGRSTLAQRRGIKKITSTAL

SMILES | in vitro RSK1 kinase assay, YB-1 peptide (10 μM screen) and S6K peptide dose res [1] | pIC50 [2, 5] | pIC50 [3] | pIC50 [4] | pIC50 [2]
O=c1c(O)c(-c2ccc(O)cc2)oc2cc(O)cc(O)c12 [Kaempferol] | all three compounds inhibited the kinase activity of both isoforms in the low micromolar range | 5.77 | 5.83 | 6.12 | –
O=c1cc(-c2ccc(O)c(O)c2)oc2cc(O)cc(O)c12 [Luteolin] | all three compounds inhibited the kinase activity of both isoforms in the low micromolar range | 5.35 | 5.65 | – | –
O=c1cc(-c2ccc(O)cc2)oc2cc(O)cc(O)c12 [Apigenin] | – | – | 5.42 | 5.46 | 5.32

From paper PMC3712578, “Luteolin is a novel p90 ribosomal S6 kinase (RSK) inhibitor that suppresses Notch4 signaling by blocking the activation of Y-box binding protein-1 (YB-1)” (Oncotarget, 2013)
